Data: patent US20190388421A1, “NOVEL COMPOUNDS AND PHARMACEUTICAL COMPOSITIONS THEREOF FOR THE TREATMENT OF FIBROSIS” (Galapagos NV, priority 2016, published 2019)

How the values were obtained:
[1] = target: T1, human GPCR sphingosine 1-phosphate receptor 2 (S1PR2) (Homo sapiens, UniProt O95136); assay: S1P2 antagonist assay (Ca2+ flux, S1P at EC80); type: cell-based; conditions: CHO-S1PR2 cells, highest concentration 20 μM
T1 construct: host or cells: CHO
Summary of the method: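 CHO cells stably overexpressing human S1PR2, serum-starved 1 h and loaded with Fluo8 dye, were read for 3 min after compound addition, then stimulated with S1P at EC80 after 15 min at 37 °C. Top concentration 20 μM in a 10-point 1/3 series; Ca2+ fluorescence ratio normalized to vehicle and S1P EC80, giving EC50.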

[2] = target: T2, human GPCR sphingosine 1-phosphate receptor 1 (S1PR1) (Homo sapiens, UniProt P21453); assay: S1PR1 selectivity assay (Ca2+ flux, antagonist); type: cell-based; conditions: S1P1 antagonist EC50, CHO cells overexpressing human S1PR1 and Gq protein
T2 construct: host or cells: CHO
T2 sequence (P21453 whole entry): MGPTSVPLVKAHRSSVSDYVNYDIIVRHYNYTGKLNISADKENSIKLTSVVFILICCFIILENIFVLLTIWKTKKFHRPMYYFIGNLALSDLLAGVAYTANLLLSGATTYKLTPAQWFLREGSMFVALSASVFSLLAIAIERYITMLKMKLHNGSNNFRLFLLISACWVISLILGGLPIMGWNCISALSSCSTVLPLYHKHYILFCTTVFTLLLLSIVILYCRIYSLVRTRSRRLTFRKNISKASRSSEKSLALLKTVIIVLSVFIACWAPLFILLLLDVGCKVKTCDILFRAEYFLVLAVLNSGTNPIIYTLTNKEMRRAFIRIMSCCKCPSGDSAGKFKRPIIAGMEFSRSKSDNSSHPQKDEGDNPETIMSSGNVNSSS
Summary of the method: (§1)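 CHO cells stably overexpressing human S1PR1 or S1PR5 with Gq were preincubated with compound 15 min at 37 °C, then stimulated with S1P at EC80 (S1PR1) or an S1PR5-specific agonist (S1PR5). Ca2+ fluorescence was read for 3 min; 10-point 1/3 dilutions from 20 μM final, normalized to vehicle and EC80 trigger, gave EC50.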

[3] = target: T3, human GPCR sphingosine 1-phosphate receptor 5 (S1PR5) (Homo sapiens, UniProt Q9H228); assay: S1PR5 selectivity assay (Ca2+ flux, antagonist, S1PR5 specific agonist trigger); type: cell-based; conditions: S1P5 antagonist EC50, CHO cells overexpressing human S1PR5 and Gq protein
T3 construct: host or cells: CHO
T3 sequence (Q9H228 whole entry): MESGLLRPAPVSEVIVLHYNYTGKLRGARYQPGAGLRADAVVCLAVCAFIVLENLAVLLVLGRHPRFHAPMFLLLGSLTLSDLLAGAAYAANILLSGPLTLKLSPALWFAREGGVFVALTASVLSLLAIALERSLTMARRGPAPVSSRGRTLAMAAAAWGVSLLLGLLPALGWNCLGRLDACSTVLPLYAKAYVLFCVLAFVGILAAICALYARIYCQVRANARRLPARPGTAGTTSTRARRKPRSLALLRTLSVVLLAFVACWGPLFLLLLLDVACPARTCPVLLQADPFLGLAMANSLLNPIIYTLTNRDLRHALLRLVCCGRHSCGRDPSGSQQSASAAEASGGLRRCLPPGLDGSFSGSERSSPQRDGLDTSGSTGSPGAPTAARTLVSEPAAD
Summary of the method: as §1

S1PR2 = target: T4, S1PR2 (Homo sapiens, UniProt O95136); assay: GTP-γS binding assay ([35S]GTPγS, S1P at EC80, S1PR2 membranes); type: biochemical; conditions: membranes from stable cell line over expressing S1PR2, read-out: S1PR2 EC
T4 construct: expressed in transfected cells
T4 sequence (O95136 whole entry): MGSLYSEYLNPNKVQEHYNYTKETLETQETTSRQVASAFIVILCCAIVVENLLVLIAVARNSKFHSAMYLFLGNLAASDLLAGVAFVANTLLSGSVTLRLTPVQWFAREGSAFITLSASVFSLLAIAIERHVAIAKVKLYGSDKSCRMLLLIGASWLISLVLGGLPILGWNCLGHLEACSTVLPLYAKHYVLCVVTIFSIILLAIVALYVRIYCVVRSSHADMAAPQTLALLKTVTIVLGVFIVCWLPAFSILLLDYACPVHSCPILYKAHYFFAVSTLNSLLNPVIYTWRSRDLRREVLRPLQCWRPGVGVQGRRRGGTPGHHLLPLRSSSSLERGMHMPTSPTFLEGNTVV
Summary of the method: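 Compounds tested against S1P at its EC80 on membranes (2.5 μg/well) from a stable S1PR2-overexpressing line, pre-incubated with 1 μM GDP 15 min at 4 °C. Buffer: 20 mM Tris pH 7.5, 10 mM MgCl2, 100 mM NaCl, 0.1% fatty-acid-free BSA, 50 ug/ml saponin. Incubated 4 h at room temperature; [35S]GTPγS binding read by WGA SPA beads.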

HFL-1 cells [4] = assay: IL8 assay (S1P induced IL-8 production); type: cell-based; conditions: Homo sapiens, HFL1; S1P (1 μM) induced IL-8, HFL-1 cells, without HSA
Summary of the method: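 Serum-starved human fetal lung fibroblasts were preincubated with compound for 1 h at 37° C (10-point, 1/3 dilution, top 30 μM, 0.3% DMSO). S1P at 1 μM final was then added for 16–24 h, and IL-8 in the supernatant was measured by ELISA.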

HFL-1 cells [5] = assay: IL8 assay in the presence of Human Serum Albumin; type: cell-based; conditions: HFL1, S1P (5 μM) induced IL-8, HFL-1 cells, with 2% HSA, read-out: HSA IL8 EC50
Summary of the method: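 Cells serum-starved with 1.95% HSA, pre-treated 1 h with compound (10-point 1/3 dilution from 30 μM, 0.3% DMSO), then stimulated with 5 μM S1P for 16 to 24 h at 37° C. Supernatant IL-8 measured by ELISA.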

T1 sequence (O95136 whole entry): as above

SMILES	EC50 [1]	EC50 [2]	EC50 [3]	EC50 (S1PR2)	EC50 (HFL-1 cells [4])	IC50 (HFL-1 cells [5])
CCOc1cc(NC(=O)NCc2cc(C)c(N3CC(C)OC(C)C3)nn2)cc(C(F)(F)F)n1 (stereo not drawn) [Compound 87, 1-[[6-(2,6-dimethyl-morpholin-4-yl)-5-methyl-pyridazin-3-yl]methyl]-3-[2-ethoxy-6-(trifluoromethyl)-4-pyridyl]urea]	42 nM	1400 nM	249 nM	331 nM	82 nM	2170 nM
Cc1cc(CNC(=O)Nc2cc(Cl)nc(OCC(F)F)c2)nnc1N1CCOC(C(F)(F)F)C1 (stereo not drawn) [Compound 89, 1-[2-chloro-6-(2,2-difluoroethoxy)-4-pyridyl]-3-[[5-methyl-6-[2-(trifluoromethyl)morpholin-4-yl]pyridazin-3-yl]methyl]urea]	34 nM	3800 nM	839 nM	422 nM	33 nM	1580 nM
Cc1cc(CNC(=O)Nc2cc(Cl)nc(OCC(F)F)c2)nnc1N1CCC(F)(CO)C1 (stereo not drawn) [Compound 90, 1-[2-chloro-6-(2,2-difluoroethoxy)-4-pyridyl]-3-[[6-[3-fluoro-3-(hydroxymethyl)pyrrolidin-1-yl]-5-methyl-pyridazin-3-yl]methyl]urea]	452 nM	6610 nM	2090 nM	1170 nM	244 nM	30000 nM
Cc1cc(CNC(=O)Nc2cc(Cl)nc(OCC(F)F)c2)nnc1N1CCC(S(C)(=O)=O)C1 (stereo not drawn) [Compound 91, 1-[2-chloro-6-(2,2-difluoroethoxy)-4-pyridyl]-3-[[5-methyl-6-(3-methylsulfonyl-pyrrolidin-1-yl)pyridazin-3-yl]methyl]urea]	529 nM	≥ 19800 nM	≥ 19800 nM	919 nM	1250 nM	2840 nM
Cc1cc(CNC(=O)Nc2cc(Cl)nc(OCC(F)F)c2)nnc1N1CC(S(C)(=O)=O)C1 [Compound 92, 1-[2-chloro-6-(2,2-difluoroethoxy)-4-pyridyl]-3-[[5-methyl-6-(3-methylsulfonyl-azetidin-1-yl)pyridazin-3-yl]methyl]urea]	188 nM	≥ 19800 nM	≥ 19800 nM	469 nM	432 nM	10000 nM
CCOc1cc(NC(=O)NCc2cc(C)c(N3CCCc4nn(C)cc43)nn2)cc(C(F)(F)F)n1 [Compound 96, 1-[2-ethoxy-6-(trifluoromethyl)-4-pyridyl]-3-[[5-methyl-6-(2-methyl-6,7-dihydro-5H-pyrazolo[4,3-b]pyridin-4-yl)pyridazin-3-yl]methyl]urea]	33 nM	6610 nM	627 nM	302 nM	44 nM	2270 nM
